Measured values: patent US20110190503A1, “Thiazolopyridin-2-yloxy-phenyl and thiazolopyrazin-2-yloxy-phenyl amines as modulators of leukotriene A4 hydrolase” (Janssen Pharmaceutical NV, priority 2008, published 2011)

Tests used:
[1] = molecular target: T1, recombinant human LTA4 hydrolase (rhLTA4H) (Homo sapiens, UniProt P09960); assay: Recombinant human LTA4 hydrolase assay for LTA4 hydrolase inhibitor activity; type: biochemical; details: rhLTA4H, LTA4 substrate, LTB4 by immunoassay; single determination or average; read-out: IC50
T1 construct: made in house; host or cells: Spodoptera frugiperda (Sf-9) cells, recombinant baculovirus (pFastBac1)
T1 sequence (P09960 1-611): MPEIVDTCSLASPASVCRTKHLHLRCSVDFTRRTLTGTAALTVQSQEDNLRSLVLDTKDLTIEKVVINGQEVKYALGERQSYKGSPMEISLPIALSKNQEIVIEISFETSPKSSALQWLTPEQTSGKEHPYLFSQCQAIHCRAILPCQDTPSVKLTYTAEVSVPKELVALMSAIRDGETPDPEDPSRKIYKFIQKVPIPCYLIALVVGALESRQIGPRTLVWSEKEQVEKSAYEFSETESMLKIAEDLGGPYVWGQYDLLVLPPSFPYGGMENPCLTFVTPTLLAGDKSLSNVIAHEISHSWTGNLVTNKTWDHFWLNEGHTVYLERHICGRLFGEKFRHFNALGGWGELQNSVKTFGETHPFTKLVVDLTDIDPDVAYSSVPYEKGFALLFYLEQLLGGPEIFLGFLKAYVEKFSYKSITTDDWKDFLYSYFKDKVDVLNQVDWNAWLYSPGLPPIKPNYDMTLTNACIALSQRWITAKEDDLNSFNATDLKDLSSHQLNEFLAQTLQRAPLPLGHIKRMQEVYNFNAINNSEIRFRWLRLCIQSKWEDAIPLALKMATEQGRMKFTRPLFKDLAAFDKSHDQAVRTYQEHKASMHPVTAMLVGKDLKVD
Procedure, shortened: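 LTB4 formed from LTA4 substrate (free acid from the methyl ester) was quantified by enzyme immunoassay after a 30 min rt reaction. Enzyme was 10 ng Sf-9-expressed human LTA4 hydrolase, pre-incubated 10 min with compound.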

[2] = system: LTB4 production by calcium ionophore-stimulated murine blood; assay: LTB4 production by calcium ionophore-stimulated murine blood for LTA4H inhibitor activity; type: cell-based, CD-1 mice; details: Mus musculus; murine blood diluted 1 in 15, calcium ionophore A23187, LTB4 by immunoassay; read-out: IC50
Procedure, shortened: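 LTB4 quantified by EIA in supernatants after murine (CD-1) heparinized whole blood was exposed to compound for 15 min, then to 7 μg/mL (final) A23187 for 30 min, all at 37° C. Reported values: single runs or means; three or more runs include SD.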

[3] = system: ex vivo stimulated LTB4 production; assay: Murine arachidonic acid-induced inflammation model: ex vivo stimulated LTB4 production (% Inh. LTB4); details: Mus musculus; female Balb/c mice, 30 mg/kg oral gavage; blood taken 3 h after arachidonic acid, ex vivo A23187 stimulation; number of determinations in parentheses
Experimental: (§1) Assay 4: Murine Arachidonic Acid-Induced Inflammation Model
(§2) LTA4H inhibitor compounds of the present invention were dissolved in 20% cyclodextran/H2O at a concentration of 3 mg/mL. The solutions were administered by oral gavage to female Balb/c mice weighing approximately 20 grams each (0.2 mL per mouse, 30 mg of LTA4H inhibitor compound per kg). Sixty minutes after being administered an LTA4 inhibitor, each mouse received topical application of 20 μL of arachidonic acid (100 mg/mL in acetone) to the left ear and 20 μL of acetone only to the right ear. After 3 h, the mice were sacrificed, blood was withdrawn in heparinized syringes, and 8 mm ear biopsies were taken. Ear biopsies were weighed to determine edema and then frozen at −80° C. until needed for determination of neutrophil influx.
One hundred-microliter aliquots of heparinized blood were added to wells of a microtiter plate, along with equal volumes of RPMI-1640 medium, and calcium ionophore A23187 was added to each sample well (final concentration=[…]). The microtiter plate contents were incubated for 30 min at 37° C. in a humidified incubator. The reaction was terminated by centrifugation (833×g, 10 min at 4° C.). Supernatants were analyzed for LTB4 by a commercially available enzyme-linked immunoassay (Cayman Chemical Co.) in accordance with the manufacturer's instructions. The percent inhibition of ex vivo stimulated LTB4 production (% Inh. LTB4) was determined by comparison to animals treated identically except that the solution administered by oral gavage was devoid of inhibitor compound.
(§3) The number of determinations is indicated in parentheses following each value

neutrophil influx = assay: Murine arachidonic acid-induced inflammation model: neutrophil influx in ear, myeloperoxidase activity (% Inh. MPO); type: in vivo; details: Mus musculus, female Balb/c mice, 30 mg/kg oral gavage, ear biopsy 3 h after topical arachidonic acid, number of determinations in parentheses
Experimental: as §1, §2
Neutrophil influx was quantified by measuring the activity of myeloperoxidase (MPO), a neutrophil-specific enzyme. The ear biopsies were homogenized in 0.5 mL extraction buffer (0.3 M sucrose, 0.22% (w/v) hexadecyl trimethyl ammonium bromide (CTAB), and 2.5 mM citrate prepared from 0.5 M citrate stock solution (pH 5.0)), in a Fast-Prep-24 (MP™) (40 seconds at 6 mps). Debris was removed by centrifugation at 14000×g for 10 min. Aliquots of 10 μL of the resulting supernatant were added to wells of a microtiter plate, along with 90-μL aliquots of dilution buffer (10 mM citrate, 0.22% CTAB), followed by addition of 20 μL TMB liquid substrate system (Sigma Chemical Co.) to each sample well. The microtiter plate contents were held at room temperature until the sample with the highest concentration of MPO reached an absorbance value of 0.4 at 650 nm. The reaction was stopped by addition of 50 μL 1 M H2SO4 to each sample well, and the myeloperoxidase activity in each sample was determined from the absorbance at 405 nm. The background value from the right ear, treated only with acetone, was subtracted from that for the left ear, treated with arachidonic acid in acetone, for each animal. The percent inhibition of neutrophil influx (% Inh. MPO) by compounds of the invention was determined by comparison to animals treated identically, except that the solution administered by oral gavage was devoid of inhibitor compound.
as §3

Row | SMILES | IC50 [1] [nM] | IC50 [2] [nM] | inhibition at 30 mg/kg [3] [%] | inhibition in vivo at 30 mg/kg (neutrophil influx) [%]
1 | CC(=O)N[C@H]1C[C@H]2CC[C@@H](C1)N2CCc1ccc(Oc2nc3cccnc3s2)cc1 [Example 52, meso-N-[(3-endo)-8-{2-[4-([1,3]Thiazolo[5,4-b]pyridin-2-yloxy)phenyl]ethyl}-8-azabicyclo[3.2.1]oct-3-yl]acetamide] | 1 | 13 | 78.3 | 60.2
2 | c1cnc2nc(Oc3ccc(CCN4CCCCC4)cc3)sc2c1 [Example 60, 2-[4-(2-Piperidin-1-ylethyl)phenoxy][1,3]thiazolo[4,5-b]pyridine] | 3 | 15 | 69.5 | 35.8
3 | OC[C@@H]1CCCN1Cc1ccc(Oc2nc3ncccc3s2)cc1 [Example 108, {(2S)-1-[4-([1,3]Thiazolo[4,5-b]pyridin-2-yloxy)benzyl]pyrrolidin-2-yl}methanol] | 2.4 | 8 | 79.8 | 71.4
4 | c1cnc2nc(Oc3ccc(OCCN4CCCCC4)cc3)sc2c1 [Example 10, 2-[4-(2-Piperidin-1-ylethoxy)phenoxy][1,3]thiazolo[4,5-b]pyridine] | 5 | 19 | 68 | 62.2
5 | OC1(c2ccccc2)CCN(CCOc2ccc(Oc3nc4ncccc4s3)cc2)CC1 [Example 27, 4-Phenyl-1-{2-[4-([1,3]thiazolo[4,5-b]pyridin-2-yloxy)phenoxy]ethyl}piperidin-4-ol] | 32 | 160 | 78.2 | 83.7
6 | NC(=O)C1CCN(Cc2ccc(Oc3nc4ncccc4s3)cc2)CC1 [Example 100, 1-[4-([1,3]Thiazolo[4,5-b]pyridin-2-yloxy)benzyl]piperidine-4-carboxamide] | 7.2 | 110 | 85.3 | 88.7
7 | c1cnc2nc(Oc3ccc(CCN4CCCC4)cc3)sc2c1 [Example 61, 2-[4-(2-Pyrrolidin-1-ylethyl)phenoxy][1,3]thiazolo[4,5-b]pyridine] | 4 | 11 | 67.4 | 62.8
8 | c1cnc2nc(Oc3ccc(CN4CCOCC4)cc3)sc2c1 [Example 86, 2-[4-(Morpholin-4-ylmethyl)phenoxy][1,3]thiazolo[4,5-b]pyridine] | 12 | 60 | 70.8 | 51.5
9 | CC(=O)N[C@H]1C[C@H]2CC[C@@H](C1)N2Cc1ccc(Oc2nc3ncc(Cl)cc3s2)cc1 [Example 287, meso-endo-N-[8-{4-[(6-Chloro[1,3]thiazolo[4,5-b]pyridin-2-yl)oxy]benzyl}-8-azabicyclo[3.2.1]oct-3-yl]acetamide] | 3 | 110 | 89.8 | 86.7
10 | CCN(CCO)CCc1ccc(Oc2nc3ncccc3s2)cc1 [Example 56, 2-(Ethyl{2-[4-([1,3]thiazolo[4,5-b]pyridin-2-yloxy)phenyl]ethyl}amino)ethanol] | 1.9 | 5 | 71.2 | 81.6
11 | CC(C)(O)C1CCN(Cc2ccc(Oc3nc4ncccc4s3)cc2)CC1 [Example 89, 2-{1-[4-([1,3]Thiazolo[4,5-b]pyridin-2-yloxy)benzyl]piperidin-4-yl}propan-2-ol] | 42 | 110 | 79.5 | 79.1
12 | CC(=O)N1CC2CN(CCOc3ccc(Oc4nc5ncccc5s4)cc3)CC2C1 (stereo not drawn) [Example 18, 2-{4-[2-(5-Acetylhexahydropyrrolo[3,4-c]pyrrol-2(1H)-yl)ethoxy]phenoxy}[1,3]thiazolo[4,5-b]pyridine] | 5.5 | 32 ± 24 | 80.9 | 86.1

More lines, main results first:

Row | IC50 [1] [nM] | IC50 [2] [nM] | SMILES | inhibition at 30 mg/kg [3] [%] | inhibition in vivo at 30 mg/kg (neutrophil influx) [%]
13 | 2 | 47 | CN(C)CCC1CCCCN1Cc1ccc(Oc2nc3ncccc3s2)cc1 (stereo not drawn) [Example 258, N,N-Dimethyl-2-{1-[4-([1,3]thiazolo[4,5-b]pyridin-2-yloxy)benzyl]piperidin-2-yl}ethanamine] | 75 | 13.8
14 | 66 | 155 | Cc1ccnc2nc(Oc3ccc(CN4CCC(C(N)=O)CC4)cc3)sc12 [Example 282, 1-{4-[(7-Methyl[1,3]thiazolo[4,5-b]pyridin-2-yl)oxy]benzyl}piperidine-4-carboxamide] | 62.8 | 61.1
15 | 110 ± 37 | 150 | CC(=O)N1C[C@@H]2C[C@H]1CN2Cc1ccc(Oc2nc3nccnc3s2)cc1 [Example 120, 2-(4-{[(1S,4S)-5-Acetyl-2,5-diazabicyclo[2.2.1]hept-2-yl]methyl}phenoxy)[1,3]thiazolo[4,5-b]pyrazine] | 57.8 | 48.1
16 | 48 | 270 | CC(=O)N1C[C@@H]2C[C@H]1CN2Cc1ccc(Oc2nc3ncc(Cl)cc3s2)cc1 [Example 122, 2-(4-{[(1S,4S)-5-Acetyl-2,5-diazabicyclo[2.2.1]hept-2-yl]methyl}phenoxy)-6-chloro[1,3]thiazolo[4,5-b]pyridine] | 72 | 66.9
17 | 10 | 120 | O=C1C[C@@H](O)CN1C1CCN(CCOc2ccc(Oc3nc4ncccc4s3)cc2)CC1 [Example 270, (4R)-4-Hydroxy-1-(1-{2-[4-([1,3]thiazolo[4,5-b]pyridin-2-yloxy)phenoxy]ethyl}piperidin-4-yl)pyrrolidin-2-one] | 75.9 | 60.6
18 | 94 | 300 | NC(=O)C1CCN(Cc2ccc(Oc3nc4nccnc4s3)cc2)CC1 [Example 285, 1-[4-([1,3]Thiazolo[4,5-b]pyrazin-2-yloxy)benzyl]piperidine-4-carboxamide] | 19.7 | 12.3
